Measured values: patent publication US12502398B2, “Combination therapy for treating cancer” (AstraZeneca AB, priority 2019, dated 2025)

Tests used:
[1] = system: Mouse Lewis lung (LL/2) carcinoma cells; test: LL/2 syngeneic tumor model with TLR3 agonist, tumor volume; assay type: in vivo; conditions: Poly I:C 7.5 mg/kg ip 3x/week; for efficacy / monotherapy activity (in words): COMPOUND 12 30 mg/kg po BID
Experimental: Mouse Lewis lung (LL/2) carcinoma cells (1×10^6 cells/mouse), were subcutaneously implanted in the right flank of 6 to 8 weeks old C57BL/6 mice. On day 6 post implant, groups of mice were treated with vehicle (water), 30 mg/kg COMPOUND 12, 7.5 mg/kg TLR3 agonist (Poly I:C), or the combination. COMPOUND 12 was formulated in water and dosed orally twice per day. Poly I:C was formulated in water and dosed intraperitoneally 3×/week. Tumor length and width was measured by caliper and tumor volume was calculated using the formula (length×width^2)*π/6 then reported as tumor volume as calculated.

[2] = system: Mouse MC38 colorectal cancer cells expressing OVA antigen; test: MC38-OVA syngeneic tumor model, tumor volume; assay type: in vivo; conditions: COMPOUND 12 30 mg/kg orally twice per day, Anti-PDL1 10 mg/kg ip twice per week
Experimental: (§1) Mouse MC38 colorectal cancer cells expressing OVA antigen (5×10^5 cells/mouse), were subcutaneously implanted in the right flank of 6 to 8 weeks old female C57BL/6 mice. On day 6 post transplant, groups of mice were treated with vehicle (water), 30 mg/kg COMPOUND 12, 10 mg/kg Anti-PDL1 (MEDI4736), or the combination. COMPOUND 12 was formulated in water and dosed orally twice per day. MEDI4736 was formulated in 1×PBS and dosed intraperitoneally twice per week for 2 weeks. Tumor length and width was measured by caliper and tumor volume was calculated using the formula (length×width^2)*π/6 then reported as tumor volume as calculated.

[3] = system: Mouse CT.26 WT colorectal cancer cells; test: CT.26 WT syngeneic tumor model, tumor volume; assay type: in vivo; conditions: COMPOUND 12 30 mg/kg orally twice per day, Anti-PDL1 10 mg/kg ip twice per week
Experimental: as §1, with “CT.26 WT” for “MC38”, “cells” for “cells expressing OVA antigen”, “Balb/C” for “C57BL/6”, “implant,” for “transplant,”, “combination. Additional groups were treated with 10 mg/kg Anti-NKG2A (monalizumab), in combination with either COMPOUND 12 or MEDI4736, or a triplicate of COMPOUND 12, monalizumab and MEDI4736.” for “combination.”, “weeks. Monalizumab was formulated in 1×PBS and dosed intravenously twice per week for 1.5 weeks (3 doses).” for “weeks.”

[4] = system: MC38-OVA model; test: In vivo PD study of immune cell changes in MC38-OVA model (flow cytometry); parameters: species or system mouse; conditions: draining lymph node
Experimental: For monitoring immune cell changes tumors were harvested either four, ten or fourteen days post treatment. Tumors were excised and mechanically minced. Tumors were then incubated with tumor dissociation enzyme mix (Miltenyi Biotec) at 37° C. for 40 min in gentle MACS instrument (Miltenyi biotec). Single cell suspension were made and stained for a variety of immune cell markers to determine the immune cell changes post treatment using multicolor flow cytometry. Furthermore, the functional response of CD8+ cytotoxic T cells was evaluated by ex vivo restimulation with phorbol 12-myristate-13-acetate (PMA) and ionomycin prior to analysis.

[5] = system: LL/2 murine lung carcinoma cells; test: LL/2 syngeneic lung tumor model with radio therapy; assay type: in vivo, mouse; conditions: COMPOUND 12 30 mg/kg twice daily, radiation 5 gray on days 6 and 9 after implant
Experimental: Six-eight week old BL/6 mice (Charles River Labs) were implanted with 1e6 LL/2 murine lung carcinoma cells subcutaneously on the right flank. At 6 days post implant, animals were randomized by mean cage tumor volume into four groups (n=12/ group). Group 1 was anesthetized for mock irradiation on days 6 and 9, and dosed with vehicle (water) PO, BID starting on day 6. Group 2 was anesthetized and given 5 Gy of radiation targeted to the tumor on days 6 and 9. Group 3 was administered AZ8400 at 30 mg/kg PO bid starting on Day 6, and Group 4 was administered AZ8400 at 30 mg/kg starting on Day 6, and anesthetized and irradiated on days 6 and 9. Body weight and tumor volume were measured twice weekly until tumors were >1500 mm3, at which point mice were humanely sacrificed

Compound | efficacy / monotherapy activity (in words) [1] | TGI on day 16 ([1]; day 16) [%] | efficacy (in words) [2] | efficacy (in words) [3] | IFNg producing CD8+ T cells in the periphery (draining LN) [4] | TNFa producing CD8+ T cells in the periphery (draining LN) [4] | tumor growth inhibition [5]
polyinosinic:polycytidylic acid [Poly I:C] | moderate monotherapy activity | 76 |  |  |  |  | 
CC(C)[C@H](N)C(=O)N[C@H]1CN[C@@](CCCCB(O)O)(C(=O)O)C1 [COMPOUND 12, (2R,4R)-4-((S)-2-amino-3-methylbutanamido)-2-(4-boronobutyl)pyrrolidine-2-carboxylic acid] | modestly efficacious |  | modestly efficacious | modestly efficacious | increase | increase | about 30%
Anti-PDL1: MEDI4736, also known as durvalumab, an anti-PD-L1 antibody [reference compound] |  |  | modest efficacy | modest efficacy |  |  | 
